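All cell lines were grown in 96-well plates and treated with compound for 48 hours. TGI denotes the concentration required for complete inhibition of growth.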
Experiments:
Assay in all cases: NCI-60 cell line screen, 48 h
[1] = system: 786-0 renal
[2] = system: A498 renal
[3] = system: A549 NSCLC
[4] = system: ACHN renal
[5] = system: BT-549 breast
[6] = system: CAKI-1 renal
[7] = system: CCRF-CEM leukemia
[8] = system: COLO 205 colon
[9] = system: DU-145 prostate
[10] = system: EKVX NSCLC
[11] = system: HCC-2998 colon
[12] = system: HCT-116 colon
[13] = system: HCT-15 colon
[14] = system: HL-60(TB) leukemia
[15] = system: HOP-62 NSCLC
[16] = system: HOP-92 NSCLC
[17] = system: HS 578T breast
[18] = system: HT29 colon
[19] = system: IGROV1 ovarian
[20] = system: K-562 leukemia
[21] = system: KM12 colon
[22] = system: LOX IMVI melanoma
[23] = system: M14 melanoma
[24] = system: MALME-3M melanoma
[25] = system: MCF7 breast
[26] = system: MDA-MB-231 breast
[27] = system: MDA-MB-435
[28] = system: MDA-N
[29] = system: MOLT-4 leukemia
[30] = system: NCI-H226 lung
[31] = system: NCI-H23 lung
[32] = system: NCI-H460 lung
[33] = system: NCI-H522 lung
[34] = system: NCI/ADR-RES ovarian
[35] = system: OVCAR-4 ovarian
[36] = system: OVCAR-5 ovarian
[37] = system: OVCAR-8 ovarian
[38] = system: PC-3 prostate
[39] = system: RPMI-8226 leukemia
[40] = system: RXF 393 renal
[41] = system: SF-268 CNS
[42] = system: SF-295 CNS
[43] = system: SK-MEL-2 melanoma
[44] = system: SK-MEL-28 melanoma
[45] = system: SK-MEL-5 melanoma
[46] = system: SK-OV-3 ovarian
[47] = system: SN12C renal
[48] = system: SNB-19 CNS
[49] = system: SR leukemia
[50] = system: SW-620 colon
[51] = system: T-47D breast
[52] = system: TK-10 renal
[53] = system: U251 CNS
[54] = system: UACC-257 melanoma
[55] = system: UACC-62 melanoma
[56] = system: UO-31 renal
[57] = system: OVCAR-3 ovarian
[58] = system: SF-539 CNS
[59] = system: SNB-75 CNS

Measured: TGI

CNC(=O)Nn1c(SC)nc2ccccc21
> 100 µM: [1] | [2] | [3] | [4] | [5] | [6] | [7] | [8] | [9] | [10] | [11] | [12] | [13] | [14] | [15] | [16] | [17] | [18] | [19] | [20] | [21] | [22] | [23] | [24] | [25] | [26] | [27] | [28] | [29] | [30] | [31] | [32] | [33] | [34] | [35] | [36] | [37] | [38] | [39] | [40] | [41] | [42] | [43] | [44] | [45] | [46] | [47] | [48] | [49] | [50] | [51] | [52] | [53] | [54] | [55] | [56]

COc1ccc(C(=O)O[C@@H]2CCN3CC[C@H](C)[C@H]23)cc1
> 100 µM: [1] | [2] | [3] | [4] | [5] | [6] | [8] | [9] | [10] | [12] | [13] | [14] | [15] | [16] | [17] | [18] | [19] | [21] | [22] | [23] | [25] | [26] | [27] | [28] | [29] | [30] | [31] | [32] | [33] | [34] | [57] | [36] | [37] | [38] | [39] | [40] | [41] | [42] | [58] | [43] | [44] | [45] | [46] | [47] | [48] | [59] | [49] | [50] | [51] | [52] | [53] | [54] | [55] | [56]

O=C(c1ccccc1)c1ccc(N2C(=O)/C(=C/c3cccc([N+](=O)[O-])c3)N=C2c2ccccc2)c(N2C(=O)/C(=C/c3cccc([N+](=O)[O-])c3)N=C2c2ccccc2)c1
15.8 µM: [14]
60.1 µM: [11]
86.6 µM: [28]
18.9 µM: [45]
81.6 µM: [59]
> 100 µM: [1] | [2] | [3] | [4] | [5] | [6] | [9] | [10] | [12] | [13] | [15] | [16] | [17] | [18] | [19] | [20] | [21] | [22] | [23] | [25] | [26] | [29] | [32] | [34] | [57] | [35] | [36] | [37] | [38] | [39] | [41] | [42] | [58] | [43] | [44] | [46] | [47] | [48] | [49] | [50] | [51] | [52] | [53] | [54] | [55] | [56]
11.1 µM: [8]
29.8 µM: [27]

OC1CCC(COC(c2ccccc2)(c2ccccc2)c2ccccc2)O1 (centres undefined)
35.8 µM: [2] | [7] | [37]
34.5 µM: [28]
33.8 µM: [55]
34.1 µM: [54]
40.6 µM: [5]
> 10 µM: [10] | [49] | [52]
31.1 µM: [4]
45.4 µM: [30]
36.6 µM: [46]
33.7 µM: [18]
32.5 µM: [58]
35.2 µM: [1] | [29]
40.7 µM: [39]
41.1 µM: [20]
39.9 µM: [27]
26.5 µM: [59]
38.3 µM: [9]
33.2 µM: [56]
35.4 µM: [31]
33.3 µM: [25]
30.4 µM: [12]
30.8 µM: [8]
34.3 µM: [21] | [22]
36 µM: [53]
39.7 µM: [14]
48.3 µM: [34]
32.1 µM: [26]
44.5 µM: [13] | [32]
40 µM: [48]
45.2 µM: [36]
33.6 µM: [41]
36.8 µM: [19]
24.3 µM: [38]
35.6 µM: [11]
37 µM: [3]
33.4 µM: [44]
32.7 µM: [23]
33.9 µM: [15]
42.3 µM: [24]
38.2 µM: [51]
42.6 µM: [43]
31.8 µM: [33] | [42]
37.2 µM: [50]
38.6 µM: [47]
30.9 µM: [6] | [45]
35.7 µM: [17]
32.4 µM: [57]
